From ChEMBL document CHEMBL4346757, “Synthesis and biological evaluation of 7-methoxy-1-(3,4,5-trimethoxyphenyl)-4,5-dihydro-2H-benzo[e]indazoles as new colchicine site inhibitors” (Bioorg Med Chem Lett, 2019)

Legend:
Format in all cases: functional
[1] = test system: HOP-92; test: Growth inhibition of human HOP92 cells assessed as cell growth at 0.1 uM after 48 hrs by SRB assay relative to control; settings: HOP-92, 48 h, read-out: Activity
[2] = test system: HT-29; test: Growth inhibition of human HT-29 cells assessed as cell growth at 0.01 uM after 48 hrs by SRB assay relative to control; settings: HT-29, 48 h, read-out: Activity
[3] = test system: SNB-19; test: Growth inhibition of human SNB19 cells assessed as cell growth at 100 uM after 48 hrs by SRB assay relative to control; settings: SNB-19, 48 h, read-out: Activity
[4] = test system: MCF7; test: Growth inhibition of human MCF7 cells assessed as cell growth at 1 uM after 48 hrs by SRB assay relative to control; settings: MCF7, 48 h, read-out: Activity
[5] = test system: NCI-H460; test: Cytotoxicity against human NCI-H460 cells assessed as growth inhibition after 48 hrs by SRB assay; settings: NCI-H460, 48 h
[6] = test system: K562; test: Cytotoxicity against human K562 cells assessed as growth inhibition after 48 hrs by SRB assay; settings: K562, 48 h
[7] = test system: RPMI-8226; test: Growth inhibition of human RPMI8226 cells assessed as cell growth at 10 uM after 48 hrs by SRB assay relative to control; settings: RPMI-8226, 48 h, read-out: Activity
[8] = test system: UACC-257; test: Growth inhibition of human UACC257 cells assessed as cell growth at 0.01 uM after 48 hrs by SRB assay relative to control; settings: UACC-257, 48 h, read-out: Activity
[9] = test system: SF-295; test: Growth inhibition of human SF295 cells assessed as cell growth at 100 uM after 48 hrs by SRB assay relative to control; settings: SF-295, 48 h, read-out: Activity
[10] = test system: PC-3; test: Growth inhibition of human PC3 cells assessed as cell growth at 100 uM after 48 hrs by SRB assay relative to control; settings: PC-3, 48 h, read-out: Activity
[11] = test system: Hs-578T; test: Cytotoxicity against human Hs 578T cells assessed as growth inhibition after 48 hrs by SRB assay
[12] = test system: SN12C; test: Cytotoxicity against human SN12C cells assessed as growth inhibition after 48 hrs by SRB assay
[13] = test system: MDA-MB-231; test: Growth inhibition of human MDA-MB-231/ATCC cells assessed as cell growth at 1 uM after 48 hrs by SRB assay relative to control; settings: MDA-MB-231, 48 h, read-out: Activity
[14] = test system: NCI-H522; test: Growth inhibition of human NCI-H522 cells assessed as cell growth at 1 uM after 48 hrs by SRB assay relative to control; settings: NCI-H522, 48 h, read-out: Activity
[15] = test system: NCI-H460; test: Growth inhibition of human NCI-H460 cells assessed as cell growth at 1 uM after 48 hrs by SRB assay relative to control; settings: NCI-H460, 48 h, read-out: Activity
[16] = test system: HOP-62; test: Growth inhibition of human HOP62 cells assessed as cell growth at 0.1 uM after 48 hrs by SRB assay relative to control; settings: HOP-62, 48 h, read-out: Activity
[17] = test system: LOX IMVI; test: Growth inhibition of human LOXIMVI cells assessed as cell growth at 1 uM after 48 hrs by SRB assay relative to control; settings: read-out: Activity
[18] = test system: SF-268; test: Growth inhibition of human SF268 cells assessed as cell growth at 100 uM after 48 hrs by SRB assay relative to control; settings: SF-268, 48 h, read-out: Activity
[19] = test system: MOLT-4; test: Growth inhibition of human MOLT4 cells assessed as cell growth at 0.01 uM after 48 hrs by SRB assay relative to control; settings: MOLT-4, 48 h, read-out: Activity
[20] = test system: COLO 205; test: Growth inhibition of human COLO205 cells assessed as cell growth at 0.01 uM after 48 hrs by SRB assay relative to control; settings: COLO 205, 48 h, read-out: Activity
[21] = test system: MCF7; test: Growth inhibition of human MCF7 cells assessed as cell growth at 10 uM after 48 hrs by SRB assay relative to control; settings: MCF7, 48 h, read-out: Activity
[22] = test system: MDA-MB-435; test: Growth inhibition of human MDA-MB-435 cells assessed as cell growth at 100 uM after 48 hrs by SRB assay relative to control; settings: MDA-MB-435, 48 h, read-out: Activity
[23] = test system: RPMI-8226; test: Cytotoxicity against human RPMI8226 cells assessed as growth inhibition after 48 hrs by SRB assay; settings: RPMI-8226, 48 h
[24] = test system: SF-295; test: Growth inhibition of human SF295 cells assessed as cell growth at 0.1 uM after 48 hrs by SRB assay relative to control; settings: SF-295, 48 h, read-out: Activity
[25] = test system: UACC-257; test: Cytotoxicity against human UACC257 cells assessed as growth inhibition after 48 hrs by SRB assay; settings: UACC-257, 48 h
[26] = test system: RPMI-8226; test: Growth inhibition of human RPMI8226 cells assessed as cell growth at 1 uM after 48 hrs by SRB assay relative to control; settings: RPMI-8226, 48 h, read-out: Activity
[27] = test system: KM12; test: Growth inhibition of human KM12 cells assessed as cell growth at 0.01 uM after 48 hrs by SRB assay relative to control; settings: KM12, 48 h, read-out: Activity
[28] = test system: M14; test: Growth inhibition of human M14 cells assessed as cell growth at 1 uM after 48 hrs by SRB assay relative to control; settings: M14, 48 h, read-out: Activity
[29] = test system: SK-MEL-5; test: Cytotoxicity against human SK-MEL-5 cells assessed as growth inhibition after 48 hrs by SRB assay; settings: SK-MEL-5, 48 h
[30] = test system: A498; test: Growth inhibition of human A498 cells assessed as cell growth at 0.01 uM after 48 hrs by SRB assay relative to control; settings: A498, 48 h, read-out: Activity
[31] = read-out: LC50 (the source's name)
[32] = read-out: pLC50 (the source's name) (converted)

## COc1ccc2c(c1)CCc1n[nH]c(-c3cc(OC)c(OC)c(OC)c3)c1-2
[1]
  growth at 0.1 µM: 30%
[2]
  growth at 0.01 µM: 5%
[3]
  growth at 100 µM: -12%
[4]
  growth at 1 µM: 12%
[5]; read-out: GI50
  GI50: < 10 nM
[5]; [31]
  CC50: 68.5 µM
[5]; read-out: TGI
  TGI: 2060 nM
[5]; read-out: pGI50 (converted)
  GI50: < 10 nM
[5]; [32]
  CC50: 69.2 µM
[5]; read-out: pTGI (converted)
  TGI: 2040 nM
[6]; read-out: GI50
  GI50: < 10 nM
[6]; [31]
  CC50: > 100 µM
[6]; read-out: TGI
  TGI: > 100 µM
[6]; read-out: pGI50 (converted)
  GI50: < 10 nM
[6]; [32]
  CC50: > 100 µM
[6]; read-out: pTGI
  TGI: > 100 µM
[7]
  growth at 10 µM: 35%
[8]
  growth at 0.01 µM: 47%
[9]
  growth at 100 µM: -61%
[10]
  growth at 100 µM: -43%
[11]; read-out: GI50
  GI50: < 10 nM
[11]; read-out: LC50
  LC50: > 100 µM
[11]; read-out: TGI
  TGI: 22.3 µM
[11]; read-out: pGI50 (converted)
  GI50: < 10 nM
[11]; read-out: pLC50 (converted)
  LC50: > 100 µM
[11]; read-out: pTGI (converted)
  TGI: 22.4 µM
[12]; read-out: GI50
  GI50: < 10 nM
[12]; [31]
  CC50: > 100 µM
[12]; read-out: TGI
  TGI: 22 µM
[12]; read-out: pGI50 (converted)
  GI50: < 10 nM
[12]; [32]
  CC50: > 100 µM
[12]; read-out: pTGI (converted)
  TGI: 21.9 µM
[13]
  growth at 1 µM: 29%
[14]
  growth at 1 µM: -16%
[15]
  growth at 1 µM: 2%
[16]
  growth at 0.1 µM: 6%
[17]
  growth at 1 µM: 18%
[18]
  growth at 100 µM: -25%
[19]
  growth at 0.01 µM: 41%
[20]
  growth at 0.01 µM: -23%
[21]
  growth at 10 µM: 5%
[22]
  growth at 100 µM: -64%
[23]; [31]
  CC50: > 100 µM
[23]; read-out: TGI
  TGI: > 100 µM
[23]; [32]
  CC50: > 100 µM
[23]; read-out: pTGI
  TGI: > 100 µM
[24]
  growth at 0.1 µM: 5%
[25]; [31]
  CC50: > 100 µM
[25]; read-out: TGI
  TGI: 34.2 µM
[25]; [32]
  CC50: > 100 µM
[25]; read-out: pTGI (converted)
  TGI: 33.9 µM
[26]
  growth at 1 µM: 52%
[27]
  growth at 0.01 µM: 14%
[28]
  growth at 1 µM: 4%
[29]; read-out: GI50
  GI50: < 10 nM
[29]; [31]
  CC50: 24.2 µM
[29]; read-out: TGI
  TGI: < 10 nM
[29]; read-out: pGI50 (converted)
  GI50: < 10 nM
[29]; [32]
  CC50: 24 µM
[29]; read-out: pTGI
  TGI: < 10 nM
[30]
  growth at 0.01 µM: -11%
